Measured values from article PMC10415494, “Ga(III) pyridinecarboxylate complexes: potential analogues of the second generation of therapeutic Ga(III) complexes?” (Journal of Biological Inorganic Chemistry, 2023).

Columns and labels:
[1] = design: method as in doi:10.1002/hlca.19600430611; settings: cited from earlier work
[2] = Complex stability in biological testing medium by time-dependent 1H NMR; format: physicochemical; settings: 300 K, over 96 h
Description: Nuclear magnetic resonance (NMR) data were collected on a Varian VNMRS 600 spectrometer operating at 599.87 MHz for ^1H. The concentration of all samples was approximately 3 mg/0.6 mL of 1% DMSO-d6/D2O. For comparison, the spectra of pure acids were also measured, while the pH of the solution of acids was adjusted to the same value as the solution of the complexes. The chemical shifts were referenced to the TSP (3-(trimethylsilyl)propionic-2,2,3,3-d4 acid sodium salt) peak (^1H NMR 0.00 ppm). The NMR data were recorded at 300 K, with chemical shifts δ reported in parts per million and coupling constants J in Hertz. All data were analysed using MestReNova 12.0.0 (2017) software. The stability in 1% DMSO-d6/D2O was determined for all samples. […]

[3] = system: Microsporum gypseum (M. gypseum) CCM F-8342; test: Growth of filamentous fungi, macrodilution method on solidified PDA (colony diameter); format: cell-based; settings: Filamentous fungi; solidified potato-dextrose growth medium; read-out: IC50 M. gypseum
Description: (§1) The antimicrobial activities of gallium(III) complexes GaPic, GaDpic, GaChel, GaCldpic, free ligands (HPic, H2Dpic, H2Chel, H2Cldpic) and positive controls (cefoxitin (C), ampicillin (A) and piperacillin (P)) were evaluated by macrodilution method using G^+ bacteria (Firmicutes) Staphylococcus aureus (S. aureus) CCM 3953 (Czech Collection of Microorganisms), G^− bacteria (γ-proteobacteria) Escherichia coli (E. coli) CCM 3988, Pseudomonas aeruginosa (P. aeruginosa) CCM 1959 (Czech Collection of Microorganisms) and the yeast Candida parapsilosis (C. parapsilosis) ATCC 22019 (American type culture collection). Cultures of bacteria (in Mueller–Hinton broth, MHB) and yeasts (in Sabouraud’s growth medium, SB) were incubated under shaking (250 rpm) at 37 °C. The growth of bacteria and yeasts was evaluated by measuring the absorbance of the growing cultures (A590) until the cultures reached the stationary growth phase. The effects of gallium(III) complexes on the growth of filamentous fungi Rhizopus oryzae (R. oryzae) CCM F-8284, Alternaria alternata (A. alternata) CCM F-128 and Microsporum gypseum (M. gypseum) CCM F-8342 (Czech Collection of Microorganisms) were observed by macrodilution method on solidified potato-dextrose growth medium (PDA). During culturing, the diameters of growing fungal colonies were measured at regular intervals. Briefly, the antimicrobial activity (bacteria and yeasts) gallium(III) complexes/ ligands were added to the microbial culture at the beginning of the cultivation-to the lag phase. Pure gallium(III) complexes/ligands were dissolved in DMSO. The final concentration of DMSO never exceeded 1.0 vol. % neither in control nor treated samples. Concentration of gallium(III) complexes used in experimental work for evaluation of antimicrobial activity was used in the range of 0.05–2 mM, for the free ligands in the range of 0.5–2.0 mM in all experiments. […] The IC50 values were evaluated from toxicity curves. All the obtained results of antimicrobial activity were compared to the activity of Ga(NO3)3.

[4] = system: Rhizopus oryzae (R. oryzae) CCM F-8284; test: as above; format: cell-based; settings: solidified potato-dextrose growth medium; read-out: IC50 R. oryzae
Description: as §1

[5] = system: Alternaria alternata (A. alternata) CCM F-128; test: as above; format: cell-based; settings: Filamentous fungi; solidified potato-dextrose growth medium; read-out: IC50 A. alternata
Description: as §1

[6] = system: Jurkat (human leukaemic T cell lymphoma); test: MTS antiproliferative assay
Description: (§2) Cell culture the cell lines A2058 (human metastatic melanoma), BLM (human metastatic melanoma), HCT116 (human colorectal carcinoma), HeLa (human cervical adenocarcinoma), Jurkat (human leukaemic T cell lymphoma). […] Cells were maintained in standard conditions with an atmosphere containing 5% CO2 at 37 °C.
(§3) The antiproliferative activity of Ga(III) complexes GaPic, GaDpic, GaChel, GaCldpic, free ligands (HPic, H2Dpic, H2Chel, H2Cldpic) and cisplatin (cisPt) were evaluated by colorimetric microculture MTS (3-(4,5-dimethylthiazol-2-yl)-5-(3-carboxymethoxyphenyl)-2-(4-sulfophenyl)-2H tetrazolium) assay (Promega, Madison, WI, USA). Cancer and non-cancer cells were seeded at density 5 × 10^3 cells/well in 96-well polystyrene microplates. Twenty-four hours after cell seeding, different concentrations (1.0—100.0 µM) of the compounds were tested. After 72 h of incubation, 10 µL of MTS was added to each well. After an additional 2 h, cell proliferation was evaluated by measuring of absorbance at wavelength 490 nm using the automated Cytation™ 3 Cell Imaging Multi-Mode Reader (Biotek, Winooski, VT, USA). The absorbance of control wells was taken as 100%, and the results were expressed as a percent of untreated control. IC50 values were calculated from MTS analyses.

[7] = system: HeLa (human cervical adenocarcinoma); test: MTS antiproliferative assay
Description: as §2, §3

[8] = system: A2058 (human metastatic melanoma); test: MTS antiproliferative assay
Description: as §2, §3

[9] = system: HCT116 (human colorectal carcinoma); test: MTS antiproliferative assay
Description: as §2, §3

[10] = system: MDA-MB-231 (human mammary gland adenocarcinoma); test: MTS antiproliferative assay
Description: as §2, §3

[11] = system: PaTu 8902 (human pancreatic adenocarcinoma); test: MTS antiproliferative assay
Description: as §2, §3

[12] = system: human dermal fibroblasts (HDF); test: in vitro
Description: as §2, §3

Solubility (qualitative) = format: physicochemical
[13] = system: Escherichia coli (E. coli) CCM 3988; test: Antimicrobial activity, macrodilution method (growth by A590); format: cell-based
Description: as §1

[14] = system: Pseudomonas aeruginosa (P. aeruginosa) CCM 1959; test: as above; format: cell-based
Description: as §1

[15] = system: Staphylococcus aureus (S. aureus) CCM 3953; test: as above; format: cell-based; settings: Bacteria; MHB, 37 °C; DMSO max 1.0 vol. %; read-out: IC50 S. aureus
Description: as §1

[16] = system: Candida parapsilosis (C. parapsilosis) ATCC 22019; test: Antimicrobial activity, macrodilution method (yeast, growth by A590); format: cell-based; settings: Yeast; Sabouraud's growth medium, 37 °C; read-out: IC50 C. parapsilosis
Description: as §1

[17] = cited from earlier work

## Fe(Dpic)2
[1]
  stability constant logβ021: 17.13

## O.O.O=C([O-])c1cc(Cl)cc(C(=O)[O-])n1.O=C([O-])c1cc(Cl)cc(C(=O)[O-])n1.[Ga+3].[Ga+3].[OH-].[OH-] [GaCldpic, [Ga(Cldpic)(H2O)(OH)]2]
[2]
  stability in 1% DMSO-d6/D2O solution: stable
[3]
  IC50: > 2000 µM
[4]
  IC50: > 2000 µM
[5]
  IC50: > 2000 µM
[6]
  IC50: 405 ± 87 µM
[7]
  IC50: 447 ± 134 µM
[8]
  IC50: 294 ± 57.5 µM
[9]
  IC50: 404 ± 47.7 µM
[10]
  IC50: 271 ± 68.3 µM
[11]
  IC50: 437 ± 22.6 µM
[12]
  IC50: 447 ± 27.6 µM
Solubility (qualitative)
  solubility in ethanol: slightly soluble
[13]; Bacteria, MHB, 37 °C, DMSO max 1.0 vol. %, read-out: IC50 E. coli
  IC50: > 2000 µM
[13]; concentration not given
  partial inhibition of E. coli growth: 30%
[14]; Bacteria, MHB, 37 °C, DMSO max 1.0 vol. %, read-out: IC50 P. aeruginosa
  IC50: 50 µM
[14]; growth fully inhibited (100%)
  MIC100 (MIC) P. aeruginosa: 500 µM
[15]
  IC50: > 2000 µM
[16]
  IC50: > 2000 µM

## O=C(O)c1cccnc1 [nicotinic, nicotinic acid]
[17]
  dissociation constant pK2: 4.66
